Structures are written as SMILES. Several values for one entry are separate records, joined by “and”; a condition that tells them apart may be missing. Equal entries are not always repeated. Some results are limits rather than exact numbers.

The values that follow come from ChEMBL document CHEMBL4680313 (Bioorg Med Chem, 2021).

Test [1] addresses T1, 5-hydroxytryptamine receptor 2A (Homo sapiens, UniProt P28223).
Test [2] addresses T2, 5-hydroxytryptamine receptor 2C (Homo sapiens) (UniProt P28335).
T2 sequence (whole entry): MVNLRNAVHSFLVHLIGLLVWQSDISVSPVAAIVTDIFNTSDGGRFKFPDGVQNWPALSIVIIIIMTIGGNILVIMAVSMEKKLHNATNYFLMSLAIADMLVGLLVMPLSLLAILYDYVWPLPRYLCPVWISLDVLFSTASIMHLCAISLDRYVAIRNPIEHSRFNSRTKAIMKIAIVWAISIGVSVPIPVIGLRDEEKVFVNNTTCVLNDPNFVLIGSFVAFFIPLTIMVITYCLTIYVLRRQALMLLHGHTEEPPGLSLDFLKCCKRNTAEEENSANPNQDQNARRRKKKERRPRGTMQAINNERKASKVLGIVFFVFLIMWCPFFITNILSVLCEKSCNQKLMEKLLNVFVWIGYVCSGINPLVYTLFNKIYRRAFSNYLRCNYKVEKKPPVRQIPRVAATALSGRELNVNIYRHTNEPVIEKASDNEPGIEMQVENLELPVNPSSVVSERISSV
The experiment in a line: Displacement of [3H]-mesulergine from human 5HT2C receptor at 10 uM by liquid scintillation counting.

Test [3] deals with T3, D(4) dopamine receptor (Homo sapiens, UniProt P21917).
T3 sequence (P21917 whole entry): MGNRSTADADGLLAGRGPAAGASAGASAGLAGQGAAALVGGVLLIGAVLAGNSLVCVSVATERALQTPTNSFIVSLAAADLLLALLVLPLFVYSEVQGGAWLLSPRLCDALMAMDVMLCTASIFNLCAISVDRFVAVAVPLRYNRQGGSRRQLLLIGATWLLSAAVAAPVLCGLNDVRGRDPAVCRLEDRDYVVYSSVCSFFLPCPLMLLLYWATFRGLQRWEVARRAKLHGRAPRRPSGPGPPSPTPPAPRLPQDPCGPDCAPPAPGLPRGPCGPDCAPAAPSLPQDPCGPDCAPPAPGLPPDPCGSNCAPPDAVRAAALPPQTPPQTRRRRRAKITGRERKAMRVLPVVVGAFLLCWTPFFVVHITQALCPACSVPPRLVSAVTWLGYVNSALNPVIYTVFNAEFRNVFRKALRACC

Test [4] has as its target T4, D(2) dopamine receptor (Homo sapiens, UniProt P14416).
Test [5] concerns the target T5, 5-hydroxytryptamine receptor 7 (Homo sapiens, UniProt P34969).
Description: Displacement of [3H]-LSD from human 5HT7 receptor by liquid scintillation counting
In test [6] the target is T6, 5-hydroxytryptamine receptor 1A (Homo sapiens, UniProt P08908).
T6 sequence (P08908 whole entry): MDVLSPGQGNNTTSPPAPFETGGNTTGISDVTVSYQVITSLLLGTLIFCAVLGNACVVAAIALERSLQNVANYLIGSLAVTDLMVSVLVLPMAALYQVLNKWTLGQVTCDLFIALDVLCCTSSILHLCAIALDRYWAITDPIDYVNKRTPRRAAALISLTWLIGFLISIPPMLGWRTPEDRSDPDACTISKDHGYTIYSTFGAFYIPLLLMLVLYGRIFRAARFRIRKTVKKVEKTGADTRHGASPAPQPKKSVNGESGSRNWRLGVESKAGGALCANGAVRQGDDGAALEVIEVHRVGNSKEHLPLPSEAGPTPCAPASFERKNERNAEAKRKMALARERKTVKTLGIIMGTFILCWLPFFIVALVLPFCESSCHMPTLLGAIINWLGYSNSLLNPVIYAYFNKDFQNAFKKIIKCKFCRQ

For test [7], the target named is T7, D(3) dopamine receptor (Homo sapiens, UniProt P35462).
The target of test [8] is Sodium-dependent serotonin transporter (Homo sapiens, UniProt P31645).
Description: Displacement of [3H]-citalopram from human SERT by liquid scintillation counting
Test [9] has as its target T8, 5-hydroxytryptamine receptor 2C (Homo sapiens, UniProt P28335).
T8 sequence (P28335 whole entry): T2 sequence (whole entry)

Test [10] addresses T5, 5-hydroxytryptamine receptor 7. The experiment in a line: Displacement of [3H]-LSD from human 5HT7 receptor at 10 uM by liquid scintillation counting. (In general: Displacement assays read how much labelled ligand stays bound in the presence of the test substance.)
The target of test [11] is T4, D(2) dopamine receptor. The experiment in a line: Displacement of [3H]-N-methylspiperone from human dopamine D2 receptor at 10 uM by liquid scintillation counting.
Test [12] has as its target T9, 5-hydroxytryptamine receptor 1A (Homo sapiens) (UniProt P08908).
T9 sequence (whole entry): T6 sequence (P08908 whole entry)
The experiment in a line: Displacement of [3H]-8-OH-DPAT from human 5HT1A receptor at 10 uM by liquid scintillation counting.

For test [13], the target named is T7, D(3) dopamine receptor. The experiment in a line: Displacement of [3H]-N-methylspiperone from human dopamine D3 receptor at 10 uM by liquid scintillation counting.
Test [14] addresses T1, 5-hydroxytryptamine receptor 2A. The experiment in a line: Displacement of [3H]-mesulergine from human 5HT2A receptor at 10 uM by liquid scintillation counting.

T7 sequence (P35462 whole entry): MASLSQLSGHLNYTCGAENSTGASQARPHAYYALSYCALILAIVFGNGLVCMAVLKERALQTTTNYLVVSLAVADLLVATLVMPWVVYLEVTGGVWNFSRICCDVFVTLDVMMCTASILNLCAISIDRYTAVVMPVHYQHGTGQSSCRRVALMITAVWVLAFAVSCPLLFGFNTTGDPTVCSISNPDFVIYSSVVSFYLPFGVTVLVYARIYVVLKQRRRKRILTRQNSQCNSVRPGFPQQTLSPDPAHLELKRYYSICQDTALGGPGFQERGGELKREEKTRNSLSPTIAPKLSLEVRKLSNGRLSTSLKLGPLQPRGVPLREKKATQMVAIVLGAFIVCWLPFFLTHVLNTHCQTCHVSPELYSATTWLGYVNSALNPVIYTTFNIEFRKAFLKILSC
T4 sequence (P14416 whole entry): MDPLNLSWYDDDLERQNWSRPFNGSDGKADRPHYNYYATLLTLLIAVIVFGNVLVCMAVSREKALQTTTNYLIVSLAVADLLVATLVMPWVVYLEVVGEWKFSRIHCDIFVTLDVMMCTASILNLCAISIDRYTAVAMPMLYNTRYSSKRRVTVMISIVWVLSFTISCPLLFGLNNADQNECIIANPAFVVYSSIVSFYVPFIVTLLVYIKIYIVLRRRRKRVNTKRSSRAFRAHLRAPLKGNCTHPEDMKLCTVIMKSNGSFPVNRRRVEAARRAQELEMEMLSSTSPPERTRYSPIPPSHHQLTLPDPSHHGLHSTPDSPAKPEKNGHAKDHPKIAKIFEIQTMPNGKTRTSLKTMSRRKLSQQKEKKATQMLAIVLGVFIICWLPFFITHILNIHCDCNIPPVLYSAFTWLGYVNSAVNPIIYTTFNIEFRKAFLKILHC
Chain of Sodium-dependent serotonin transporter (P31645 whole entry): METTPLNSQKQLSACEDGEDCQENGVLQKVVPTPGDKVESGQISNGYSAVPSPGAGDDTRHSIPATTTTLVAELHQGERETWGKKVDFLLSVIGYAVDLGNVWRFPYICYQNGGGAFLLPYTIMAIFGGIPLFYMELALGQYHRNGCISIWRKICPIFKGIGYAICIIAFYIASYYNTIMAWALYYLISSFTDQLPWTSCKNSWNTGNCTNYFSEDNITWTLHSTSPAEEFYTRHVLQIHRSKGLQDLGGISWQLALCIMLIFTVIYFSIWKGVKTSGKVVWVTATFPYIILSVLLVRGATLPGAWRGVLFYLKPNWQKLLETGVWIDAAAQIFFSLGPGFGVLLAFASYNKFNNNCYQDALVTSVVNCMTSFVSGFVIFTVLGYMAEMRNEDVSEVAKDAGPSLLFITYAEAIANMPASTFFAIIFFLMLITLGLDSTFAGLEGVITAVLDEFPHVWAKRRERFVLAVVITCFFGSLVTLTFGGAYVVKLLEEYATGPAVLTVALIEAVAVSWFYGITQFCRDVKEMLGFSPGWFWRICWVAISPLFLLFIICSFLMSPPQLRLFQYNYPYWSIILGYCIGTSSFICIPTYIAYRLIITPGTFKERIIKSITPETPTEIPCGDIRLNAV
T1 sequence (P28223 whole entry): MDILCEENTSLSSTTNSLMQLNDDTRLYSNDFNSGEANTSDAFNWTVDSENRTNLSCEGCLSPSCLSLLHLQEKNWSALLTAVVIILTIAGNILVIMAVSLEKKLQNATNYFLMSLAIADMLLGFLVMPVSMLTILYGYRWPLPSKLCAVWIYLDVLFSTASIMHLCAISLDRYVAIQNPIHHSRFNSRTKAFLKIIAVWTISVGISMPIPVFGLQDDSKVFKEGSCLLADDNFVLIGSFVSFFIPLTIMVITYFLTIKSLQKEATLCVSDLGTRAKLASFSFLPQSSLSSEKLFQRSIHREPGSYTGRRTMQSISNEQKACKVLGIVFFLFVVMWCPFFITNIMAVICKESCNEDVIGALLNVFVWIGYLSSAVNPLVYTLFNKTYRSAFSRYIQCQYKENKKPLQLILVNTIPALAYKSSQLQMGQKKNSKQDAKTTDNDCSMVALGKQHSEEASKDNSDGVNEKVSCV
T5 sequence (P34969 whole entry): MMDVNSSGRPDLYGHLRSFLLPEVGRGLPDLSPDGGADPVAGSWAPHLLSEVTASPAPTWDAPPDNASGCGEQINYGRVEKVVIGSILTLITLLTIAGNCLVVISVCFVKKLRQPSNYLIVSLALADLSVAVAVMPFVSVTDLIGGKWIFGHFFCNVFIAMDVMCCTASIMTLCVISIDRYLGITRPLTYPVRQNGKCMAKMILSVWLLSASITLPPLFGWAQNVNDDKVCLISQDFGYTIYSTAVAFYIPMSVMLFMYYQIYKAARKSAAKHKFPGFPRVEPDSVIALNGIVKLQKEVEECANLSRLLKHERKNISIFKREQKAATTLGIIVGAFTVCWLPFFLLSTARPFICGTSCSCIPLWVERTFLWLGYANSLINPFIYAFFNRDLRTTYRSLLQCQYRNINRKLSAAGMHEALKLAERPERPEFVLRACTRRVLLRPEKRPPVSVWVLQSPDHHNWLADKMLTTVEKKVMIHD

For the molecule `O=C1c2ccc(F)cc2CC1CCN1CCCN(c2ccccn2)CC1` (stereo not drawn), the Ki in [1] worked out at 59 nM; in test [3], 191 nM; in test [4], 649 nM; in test [5], 58 nM; in test [6], 886 nM; in test [7] it was 2290 nM. Further, in [8], the inhibitory constant (Ki) is 949 nM and 933 nM. The same molecule displayed an inhibition in [2] of 50%.

Molecule `Fc1ccc(CCCCN2CCN(c3ccccn3)CC2)cc1` came in with an inhibition in test [2] of 50%.

For `O=C1c2ccc(F)cc2CC1CCN1CCCN(c2ccc(Cl)cn2)CC1` (stereo not drawn), the inhibition constant (Ki) is 13 nM in [1]; 36 nM in test [3]; 364 nM in test [4]; 58 nM in [5]; 209 nM in [6]; 125 nM in test [7]. Further, the inhibitory constant (Ki) in [9] is 355 nM; in test [8], 24 nM.

For the molecule `Cc1ccc(N2CCN(CCCCc3ccc(F)cc3)CC2)nc1`, the Ki is 60 nM in test [5], 92 nM in [6], 1610 nM in [9] and 2990 nM in test [8].

As for `Fc1ccc(CCCCN2CCN(c3ccncc3)CC2)cc1`, the inhibition in test [10], in test [2], in test [11], in [12], in test [13] and in [14] was 50% throughout. In test [3], this molecule yielded an inhibition constant (Ki) of 2050 nM.

Take `O=C(CCCN1CCN(c2cccnc2)CC1)c1ccc(F)cc1`: the inhibition constant Ki in test [1] is 305 nM; in test [3], 30 nM; in [4] it was 1170 nM; in test [5], 147 nM and 135 nM; in test [6] it was 97 nM; in test [7], 140 nM. In [2], this molecule showed an inhibition of 50%.

Take `O=C(CCCN1CCCN(c2ccccn2)CC1)c1ccc(F)cc1`: the inhibitory constant (Ki) in test [1] was 1.2 nM; in test [3], 257 nM; in test [4] it was 181 nM; in [5], 569 nM and 1550 nM; in test [6], 1960 nM and 1910 nM; in test [7], 3450 nM. In test [9], this molecule registered an inhibitory constant (Ki) of 337 nM.

Consider `Fc1ccc(CCCCN2CCN(c3cccnc3)CC2)cc1`, for which the inhibitory constant (Ki) was 338 nM in test [1], 16 nM in test [3], 267 nM in test [5] and 18 nM in [6]. Also, the inhibition in test [2] and in test [11] was 50% in each case.

For `O=C1c2ccc(F)cc2CC1CCN1CCCN(c2ccc(Cl)cc2)CC1` (stereo not drawn), the inhibition constant (Ki) in test [5] was found to be 72 nM; in [8], 24 nM.

Turning to `O=C(CCCN1CCCN(c2ccc(Cl)cn2)CC1)c1ccc(F)cc1`, the inhibition constant Ki in [1] came out at 8.9 nM; in [3], 37 nM; in test [4] it was 41 nM; in test [5], 214 nM; in test [6], 259 nM; in test [7], 26 nM. Further, the inhibitory constant (Ki) in [9] stood at 392 nM; in test [8], 37 nM.

As to `O=C(CCCN1C2CCC1CN(c1ccc(Cl)cn1)C2)c1ccc(F)cc1`, the Ki in test [1] is 51 nM; in test [3], 119 nM; in [4], 1250 nM; in [5], 335 nM; in test [6] it was 78 nM; in test [7] it was 1010 nM. The Ki in test [9] turned out to be 1360 nM; in [8] it was 241 nM.

Regarding `Fc1ccc(CCCCN2C3CCC2CN(c2ccc(Cl)cn2)C3)cc1`, the Ki amounted to 94 nM in [1]; 44 nM in test [3]; 339 nM in test [5]; 94.2 nM in test [6]; 840 nM in test [7]; 158 nM in test [8]. Further, the inhibition in test [2] and in test [11] was 50% in each case.

`Fc1ccc(CCCCN2CCN(c3ccc(-c4ccccc4)cn3)CC2)cc1`: the Ki in test [1] is 147 nM; in [3], 2260 nM; in [4], above 10000 nM; in [5], above 10000 nM; in test [6] it was 1460 nM; in [7], 2090 nM. Moreover, the inhibition constant Ki in test [9] was above 10000 nM; in test [8] it was 2670 nM.

In the case of `Fc1ccc2c(c1)CC(CCN1CCCN(c3ccccn3)CC1)C2` (stereo not drawn), the inhibition constant Ki in [1] is 43 nM; in [3] it was 104 nM; in test [4], 599 nM; in [5] it was 267 nM; in test [6], 615 nM and 589 nM; in test [7], 774 nM. The inhibition constant (Ki) in test [9] came out at 963 nM; in test [8], 64 nM.

Turning to `Fc1ccc(CCCCN2CCN(c3cccc(-c4ccccc4)n3)CC2)cc1`, the Ki is 261 nM in [1]; 84 nM in test [3]; 641 nM in [4]; 160 nM in test [5]; 155 nM in test [6]; 58 nM in test [7]. Besides, the Ki in [9] is 2960 nM; in test [8] it was above 10000 nM.

By Ki is commonly meant the dissociation constant of the complex between target and ligand, obtained from inhibition or displacement. Lower therefore signals a stronger hold on the target. Usually inhibition stands for the change of the read-out against control, counted positive when it falls. A low value points to a weak effect.
